According to ChEMBL document CHEMBL1275453, “Resistance trends of the Bacteroides fragilis group over a 10-year period, 1997 to 2006, in Madrid, Spain” (2008):
Converted amounts (≈) assume the structure as drawn.

What was measured:
Assay type in all cases: functional
Phocaeicola vulgatus [1] = assay: Antibacterial activity against Bacteroides vulgatus assessed as percent resistant isolates by agar dilution method
[2] = system: Bacteroides thetaiotaomicron; assay: Antibacterial activity against Bacteroides thetaiotaomicron assessed as percent resistant isolates by agar dilution method
Phocaeicola vulgatus [3] = assay: Antibacterial activity against Bacteroides vulgatus isolate by agar dilution method
Parabacteroides merdae = assay: Antibacterial activity against Bacteroides merdae isolate by agar dilution method
[4] = system: Bacteroides thetaiotaomicron; assay: Antibacterial activity against Bacteroides thetaiotaomicron isolate by agar dilution method
Bacteroides ovatus [5] = assay: Antibacterial activity against Bacteroides ovatus assessed as percent resistant isolates by agar dilution method
Bacteroides uniformis [6] = assay: Antibacterial activity against Bacteroides uniformis isolate by agar dilution method
Bacteroides fragilis [7] = assay: Antibacterial activity against Bacteroides fragilis isolate by agar dilution method
[8] = system: Parabacteroides distasonis; assay: Antibacterial activity against Bacteroides distasonis isolate by agar dilution method
Bacteroides eggerthii = assay: Antibacterial activity against Bacteroides eggerthii isolate by agar dilution method
Bacteroides sp. = assay: Antibacterial activity against Bacteroides spp. isolate by agar dilution method
Bacteroides ovatus [9] = assay: Antibacterial activity against Bacteroides ovatus isolate by agar dilution method
Bacteroides caccae [10] = assay: Antibacterial activity against Bacteroides caccae isolate by agar dilution method
Bacteroides stercoris [11] = assay: Antibacterial activity against Bacteroides stercoris isolate by agar dilution method
[12] = system: Parabacteroides distasonis; assay: Antibacterial activity against Bacteroides distasonis assessed as percent resistant isolates by agar dilution method
Bacteroides fragilis [13] = assay: Antibacterial activity against Bacteroides fragilis assessed as percent resistant isolates by agar dilution method
Bacteroides caccae [14] = assay: Antibacterial activity against Bacteroides caccae assessed as percent resistant isolates by agar dilution method
Bacteroides uniformis [15] = assay: Antibacterial activity against Bacteroides uniformis assessed as percent resistant isolates by agar dilution method
Bacteroides stercoris [16] = assay: Antibacterial activity against Bacteroides stercoris assessed as percent resistant isolates by agar dilution method; conditions: pooled result: one value given for 4 cell lines, strains, targets or settings

| SMILES | Activity (Phocaeicola vulgatus [1]) [%] | Activity [2] [%] | MIC50 (Phocaeicola vulgatus [3]) [µg/mL] | MIC90 (Phocaeicola vulgatus [3]) [µg/mL] | MIC50 (Parabacteroides merdae) [µg/mL] | MIC90 (Parabacteroides merdae) [µg/mL] | MIC50 [4] [µg/mL] | MIC90 [4] [µg/mL] | Activity (Bacteroides ovatus [5]) [%] | MIC50 (Bacteroides uniformis [6]) [µg/mL] | MIC90 (Bacteroides uniformis [6]) [µg/mL] | MIC50 (Bacteroides fragilis [7]) [µg/mL] | MIC90 (Bacteroides fragilis [7]) [µg/mL] | MIC50 [8] [µg/mL] | MIC90 [8] [µg/mL] | MIC50 (Bacteroides eggerthii) [µg/mL] | MIC90 (Bacteroides eggerthii) [µg/mL] | MIC50 (Bacteroides sp.) [µg/mL] | MIC90 (Bacteroides sp.) [µg/mL] | MIC50 (Bacteroides ovatus [9]) [µg/mL] | further results |
| --- | --- | --- | --- | --- | --- | --- | --- | --- | --- | --- | --- | --- | --- | --- | --- | --- | --- | --- | --- | --- | --- |
| CO[C@@]1(NC(=O)Cc2cccs2)C(=O)N2C(C(=O)O)=C(COC(N)=O)CS[C@@H]21 [CEFOXITIN] | 17 | 23.6 | 16 (≈ 37.4 µM) | 64 (≈ 150 µM) | 16 (≈ 37.4 µM) | 64 (≈ 150 µM) | 32 (≈ 74.9 µM) | 64 (≈ 150 µM) | 12.2 | 16 (≈ 37.4 µM) | 32 (≈ 74.9 µM) | 8 (≈ 18.7 µM) | 32 (≈ 74.9 µM) | 32 (≈ 74.9 µM) | 64 (≈ 150 µM) | 16 (≈ 37.4 µM) | 64 (≈ 150 µM) | 16 (≈ 37.4 µM) | 64 (≈ 150 µM) | 16 (≈ 37.4 µM) | MIC90 (Bacteroides ovatus [9]): 64 µg/mL (≈ 150 µM); MIC50 (Bacteroides caccae [10]): 16 µg/mL (≈ 37.4 µM); MIC90 (Bacteroides caccae [10]): 32 µg/mL (≈ 74.9 µM); MIC50 (Bacteroides stercoris [11]): 16 µg/mL (≈ 37.4 µM); MIC90 (Bacteroides stercoris [11]): 64 µg/mL (≈ 150 µM); Activity [12]: 25.6%; Activity (Bacteroides fragilis [13]): 6.4%; Activity (Bacteroides caccae [14]): 8.9%; Activity (Bacteroides uniformis [15]): 9.4%; Activity (Bacteroides stercoris [16]): 23.9% |
| O=C(N[C@H](CO)[C@H](O)c1ccc([N+](=O)[O-])cc1)C(Cl)Cl [CHLORAMPHENICOL] | 0 | 0 | 4 (≈ 12.4 µM) | 8 (≈ 24.8 µM) | 4 (≈ 12.4 µM) | 8 (≈ 24.8 µM) | 4 (≈ 12.4 µM) | 8 (≈ 24.8 µM) | 0 | 4 (≈ 12.4 µM) | 8 (≈ 24.8 µM) | 4 (≈ 12.4 µM) | 8 (≈ 24.8 µM) | 8 (≈ 24.8 µM) | 8 (≈ 24.8 µM) | 4 (≈ 12.4 µM) | 8 (≈ 24.8 µM) | 4 (≈ 12.4 µM) | 8 (≈ 24.8 µM) | 4 (≈ 12.4 µM) | MIC90 (Bacteroides ovatus [9]): 8 µg/mL (≈ 24.8 µM); MIC50 (Bacteroides caccae [10]): 4 µg/mL (≈ 12.4 µM); MIC90 (Bacteroides caccae [10]): 8 µg/mL (≈ 24.8 µM); MIC50 (Bacteroides stercoris [11]): 4 µg/mL (≈ 12.4 µM); MIC90 (Bacteroides stercoris [11]): 8 µg/mL (≈ 24.8 µM); Activity [12]: 0%; Activity (Bacteroides fragilis [13]): 0%; Activity (Bacteroides caccae [14]): 0%; Activity (Bacteroides uniformis [15]): 0%; Activity (Bacteroides stercoris [16]): 0% |
| CCC[C@@H]1C[C@@H](C(=O)N[C@@H]([C@H]2O[C@H](SC)[C@H](O)[C@@H](O)[C@H]2O)[C@H](C)Cl)N(C)C1 [CLINDAMYCIN] | 44.7 | 47.3 | 4 (≈ 9.41 µM) | > 256 | 4 (≈ 9.41 µM) | > 256 | 4 (≈ 9.41 µM) | > 256 | 48.8 | 2 (≈ 4.71 µM) | > 256 | 2 (≈ 4.71 µM) | > 256 | 4 (≈ 9.41 µM) | > 256 | 4 (≈ 9.41 µM) | > 256 | 4 (≈ 9.41 µM) | > 256 | 4 (≈ 9.41 µM) | MIC90 (Bacteroides ovatus [9]): > 256 µg/mL; MIC50 (Bacteroides caccae [10]): 4 µg/mL (≈ 9.41 µM); MIC90 (Bacteroides caccae [10]): > 256 µg/mL; MIC50 (Bacteroides stercoris [11]): 4 µg/mL (≈ 9.41 µM); MIC90 (Bacteroides stercoris [11]): > 256 µg/mL; Activity [12]: 41.9%; Activity (Bacteroides fragilis [13]): 33.3%; Activity (Bacteroides caccae [14]): 46.7%; Activity (Bacteroides uniformis [15]): 40.6%; Activity (Bacteroides stercoris [16]): 45.7% |
